Laboratory results taken from ChEMBL document CHEMBL1201862, “PubChem BioAssay data set” (2004).
The source made the active and inactive calls.

Columns and labels:
HeLa = assay: ATP-based viability loss in HeLa cells – cell-based, CellTiter-Glo luminescence, cherry-pick samples, cytotoxicity control for MITF activator project, dose response (AID 540259); format: functional; settings: Homo sapiens
[1] = non-specific 3'UTR reporter inhibition in Clone20-Shn3RL – cell-based, Renilla luciferase, cherry-picked, counter-screen for Shn3 inhibitor project, dose response (AID 624133); format: functional
Fatty acid synthase [2] = biological target: T1, Fatty acid synthase (Homo sapiens, UniProt P49327); assay: inhibition of human FAS-TE enzyme activity – biochemical, kinetic fluorescence intensity, dose response (AID 624326); format: functional;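 also: rate of fluorescence rise from hydrolysis of a fluorogenic O-methyl fluorescein ester substrate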
[3] = loss of viability in HepG2 cells – cell-based, CellTiter-Glo, cherry-picked, cytotoxicity control for Shn3 inhibitor project, dose response (AID 624134); format: functional
[4] = biological target: T2, Type-1 angiotensin II receptor (Homo sapiens, UniProt P30556); assay: antagonism of angiotensin II type 1 receptor – cell-based, uHTS hits, selectivity assay for APJ receptor antagonist project, dose response (AID 463214); format: functional;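 also: antagonist potency against angiotensin II stimulated AT1 response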
T2 sequence (P30556 whole entry): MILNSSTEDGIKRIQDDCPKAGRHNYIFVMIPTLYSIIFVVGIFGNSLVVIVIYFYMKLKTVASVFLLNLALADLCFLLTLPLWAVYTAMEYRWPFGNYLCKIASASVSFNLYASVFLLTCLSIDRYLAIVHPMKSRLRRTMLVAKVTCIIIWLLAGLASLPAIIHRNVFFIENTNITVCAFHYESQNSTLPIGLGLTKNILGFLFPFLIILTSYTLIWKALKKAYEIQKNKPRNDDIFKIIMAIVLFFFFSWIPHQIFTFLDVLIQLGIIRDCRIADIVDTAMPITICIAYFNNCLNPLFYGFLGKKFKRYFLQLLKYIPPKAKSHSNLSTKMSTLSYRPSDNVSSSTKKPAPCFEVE

INS1 = assay: INS-1E survival protection against cytokine death – cell-based, luminescence, retest, dose response (AID 449756); format: functional; settings: Rattus norvegicus;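 also: cell death triggered by IL-1 beta plus TNF-alpha plus IFN-gamma mixture; protective hits raise ATP signal compared with cytokine alone wells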
CHO = CHO cell viability loss, potency – luminescence, cytotoxicity control for TLR9-MyD88 binding inhibitor project, dose response (AID 588339); format: functional, cell-based, hamster; settings: Cricetulus griseus;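 also: CHO cells stably coexpressing TLR9 and MyD88 fusions from primary screen; compound exposure lasted 48 hours before viability readout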
Fatty acid synthase [5] = biological target: T1, Fatty acid synthase; assay: inhibition of human FAS-TE enzyme activity – biochemical, endpoint fluorescence intensity, uHTS hits, dose response (AID 624327); format: functional;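 also: fluorescence from hydrolysis of an O-methyl fluorescein acyl ester substrate by the enzyme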
[6] = reduction of Shn3 3'UTR-driven luciferase in osteoblasts – cell-based, Clone20 osteoblasts, firefly luciferase, cherry-picked, dose response (AID 624132); format: functional;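 also: firefly luciferase luminescence from reporter carrying the Shn3 3'UTR in osteoblasts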
Beta-galactosidase = Beta-galactosidase (Escherichia coli, UniProt Q8VNN2); assay: PubChem AID 485352; format: functional
[7] = Luminescence Cell-Based Dose Confirmation HTS to Identify Activators of 5'UTR Stem-Loop Driven Alpha-Synuclein mRNA Translation in H4 Neuroglioblastoma Cells. [Related pubchem assays: 1829 (Project Summary), 1814 (Primary HTS)]; format: functional
[8] = Luminescence Cell-Based Dose Response HTS to Identify Activators of Luciferase Translation or Activity in H4 […] Cells. [Related pubchem assays: 1829 (Project Summary), 1814 (Primary HTS)]; format: functional
[9] = biological target: Luciferin 4-monooxygenase (Photinus pyralis, UniProt P08659); assay: inhibition of purified Photinus pyralis luciferase – biochemical, luminescence, dose response (AID 1891)
H4 = assay: Luminescence Cell-Based Dose Response HTS to Identify Activators of 5'UTR Stem-Loop Driven Prion Protein mRNA Translation in H4 Neuroglioblastoma Cells. [Related pubchem assays: 1829 (Project Summary), 1814 (Primary HTS)]; format: functional; settings: Homo sapiens
[10] = Luminescence Cell-Based Dose Confirmation HTS to Identify Inhibitors of Platelet Dense Granule Release. [Related pubchem assays: 1663 (Primary HTS), 1678 (Summary of Project)]; format: functional
[11] = biological target: 5-hydroxytryptamine receptor 5A (Homo sapiens, UniProt P47898); assay: Counterscreen for agonists of OPRM1-OPRD1 heterodimerization: luminescence-based cell-based high throughput dose response assay to identify agonists of 5-hydroxytryptamine (serotonin) 5A receptor (HTR5A). [Related pubchem assays (depositor defined):AID504326, AID504355, AID504692, AID504904, AID504905]; format: functional
Mu-type opioid receptor = Mu-type opioid receptor (Homo sapiens, UniProt P35372); assay: (§1) Counterscreen for agonists of heterodimerization of the mu 1 (OPRM1) and delta 1 (OPRD1) opioid receptors: Luminescence-based cell-based high throughput dose response assay to identify agonists of OPRM1 homodimerization.; format: functional
[12] = biological target: Delta-type opioid receptor (Homo sapiens, UniProt P41143); assay: as §1, with “of OPRD1” for “of OPRM1”, “homodimerization. [Related pubchem assays (depositor defined):AID504326, AID504355, AID504692, AID504904, AID504905]” for “homodimerization.”; format: functional
Cytochrome P450 3A4 = Cytochrome P450 3A4 (Homo sapiens, UniProt P08684);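 also: CYP3A4 tested as one member of a cytochrome P450 panel screen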
Cytochrome P450 2C9 = Cytochrome P450 2C9 (Homo sapiens, UniProt P11712)
[13] = biological target: T3, Short transient receptor potential channel 4 (Mus musculus, UniProt Q9QUQ5); assay: calcium entry via TRPC4 opening agents – cell-based, HEK293 TRPC4/mu-opioid, Fluo-4 calcium, dose response (AID 434937); format: functional
T3 sequence (Q9QUQ5 whole entry): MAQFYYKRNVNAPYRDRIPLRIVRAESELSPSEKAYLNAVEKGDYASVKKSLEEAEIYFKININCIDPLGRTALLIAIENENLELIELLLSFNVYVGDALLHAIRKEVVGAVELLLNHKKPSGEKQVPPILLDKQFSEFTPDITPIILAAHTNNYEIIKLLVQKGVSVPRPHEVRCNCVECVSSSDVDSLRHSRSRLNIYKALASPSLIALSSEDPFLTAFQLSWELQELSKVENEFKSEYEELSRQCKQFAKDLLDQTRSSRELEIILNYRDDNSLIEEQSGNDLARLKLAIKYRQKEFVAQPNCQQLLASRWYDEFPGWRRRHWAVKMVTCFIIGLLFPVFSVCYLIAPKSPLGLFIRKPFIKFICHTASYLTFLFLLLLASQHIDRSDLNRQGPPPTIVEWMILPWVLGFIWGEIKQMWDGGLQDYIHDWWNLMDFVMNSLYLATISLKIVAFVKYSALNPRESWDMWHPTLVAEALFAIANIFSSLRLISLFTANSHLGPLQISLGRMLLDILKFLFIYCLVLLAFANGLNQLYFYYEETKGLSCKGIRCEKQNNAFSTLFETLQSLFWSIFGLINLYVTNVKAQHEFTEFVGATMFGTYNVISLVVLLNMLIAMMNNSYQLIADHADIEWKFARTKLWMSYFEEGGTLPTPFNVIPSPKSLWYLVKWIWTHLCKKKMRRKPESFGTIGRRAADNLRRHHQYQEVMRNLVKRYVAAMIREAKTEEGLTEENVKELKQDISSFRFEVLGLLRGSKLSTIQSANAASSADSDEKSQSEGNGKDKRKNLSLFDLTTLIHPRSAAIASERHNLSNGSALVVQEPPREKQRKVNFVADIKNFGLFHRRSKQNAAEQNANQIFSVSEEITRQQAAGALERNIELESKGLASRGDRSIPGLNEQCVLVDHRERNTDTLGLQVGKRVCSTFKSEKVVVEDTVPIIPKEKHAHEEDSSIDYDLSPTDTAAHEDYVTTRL

[14] = biological target: T3, Short transient receptor potential channel 4; assay: block of DAMGO-driven TRPC4 calcium entry – cell-based, HEK293 TRPC4/mu-opioid, Fluo-4 calcium, dose response (AID 434942); format: functional;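 also: potency of inhibitors blocking the TRPC4 calcium response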

Sequence of 5-hydroxytryptamine receptor 5A (P47898 whole entry): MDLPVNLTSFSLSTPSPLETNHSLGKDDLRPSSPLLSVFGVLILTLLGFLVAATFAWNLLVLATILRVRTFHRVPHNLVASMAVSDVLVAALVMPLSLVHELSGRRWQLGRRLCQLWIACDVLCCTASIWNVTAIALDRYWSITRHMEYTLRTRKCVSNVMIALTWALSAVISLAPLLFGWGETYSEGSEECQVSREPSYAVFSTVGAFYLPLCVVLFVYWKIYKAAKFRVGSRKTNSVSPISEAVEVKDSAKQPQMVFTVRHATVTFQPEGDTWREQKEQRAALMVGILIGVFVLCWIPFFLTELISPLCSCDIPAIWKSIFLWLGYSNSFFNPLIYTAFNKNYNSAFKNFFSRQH
Sequence of Mu-type opioid receptor (P35372 whole entry): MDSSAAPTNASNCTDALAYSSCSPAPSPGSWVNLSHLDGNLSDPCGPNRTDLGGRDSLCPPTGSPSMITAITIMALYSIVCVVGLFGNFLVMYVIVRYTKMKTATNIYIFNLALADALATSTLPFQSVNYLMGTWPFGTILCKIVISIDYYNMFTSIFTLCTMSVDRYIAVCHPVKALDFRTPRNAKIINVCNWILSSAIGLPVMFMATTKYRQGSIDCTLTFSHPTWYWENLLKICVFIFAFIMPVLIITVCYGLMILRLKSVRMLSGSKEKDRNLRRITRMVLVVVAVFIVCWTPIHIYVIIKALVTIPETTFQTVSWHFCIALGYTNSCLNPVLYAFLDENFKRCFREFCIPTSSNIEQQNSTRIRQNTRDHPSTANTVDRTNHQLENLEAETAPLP
Sequence of Delta-type opioid receptor (P41143 whole entry): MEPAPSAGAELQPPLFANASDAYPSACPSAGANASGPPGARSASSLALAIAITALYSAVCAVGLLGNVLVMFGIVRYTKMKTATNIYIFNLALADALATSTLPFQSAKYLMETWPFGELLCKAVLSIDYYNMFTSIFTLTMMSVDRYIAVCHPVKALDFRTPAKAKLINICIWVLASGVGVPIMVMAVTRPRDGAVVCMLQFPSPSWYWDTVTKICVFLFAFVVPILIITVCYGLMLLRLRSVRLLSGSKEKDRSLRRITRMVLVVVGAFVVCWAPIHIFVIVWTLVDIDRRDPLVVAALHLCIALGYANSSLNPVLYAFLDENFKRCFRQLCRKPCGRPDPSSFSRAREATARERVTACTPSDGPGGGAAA
T1 sequence (P49327 whole entry): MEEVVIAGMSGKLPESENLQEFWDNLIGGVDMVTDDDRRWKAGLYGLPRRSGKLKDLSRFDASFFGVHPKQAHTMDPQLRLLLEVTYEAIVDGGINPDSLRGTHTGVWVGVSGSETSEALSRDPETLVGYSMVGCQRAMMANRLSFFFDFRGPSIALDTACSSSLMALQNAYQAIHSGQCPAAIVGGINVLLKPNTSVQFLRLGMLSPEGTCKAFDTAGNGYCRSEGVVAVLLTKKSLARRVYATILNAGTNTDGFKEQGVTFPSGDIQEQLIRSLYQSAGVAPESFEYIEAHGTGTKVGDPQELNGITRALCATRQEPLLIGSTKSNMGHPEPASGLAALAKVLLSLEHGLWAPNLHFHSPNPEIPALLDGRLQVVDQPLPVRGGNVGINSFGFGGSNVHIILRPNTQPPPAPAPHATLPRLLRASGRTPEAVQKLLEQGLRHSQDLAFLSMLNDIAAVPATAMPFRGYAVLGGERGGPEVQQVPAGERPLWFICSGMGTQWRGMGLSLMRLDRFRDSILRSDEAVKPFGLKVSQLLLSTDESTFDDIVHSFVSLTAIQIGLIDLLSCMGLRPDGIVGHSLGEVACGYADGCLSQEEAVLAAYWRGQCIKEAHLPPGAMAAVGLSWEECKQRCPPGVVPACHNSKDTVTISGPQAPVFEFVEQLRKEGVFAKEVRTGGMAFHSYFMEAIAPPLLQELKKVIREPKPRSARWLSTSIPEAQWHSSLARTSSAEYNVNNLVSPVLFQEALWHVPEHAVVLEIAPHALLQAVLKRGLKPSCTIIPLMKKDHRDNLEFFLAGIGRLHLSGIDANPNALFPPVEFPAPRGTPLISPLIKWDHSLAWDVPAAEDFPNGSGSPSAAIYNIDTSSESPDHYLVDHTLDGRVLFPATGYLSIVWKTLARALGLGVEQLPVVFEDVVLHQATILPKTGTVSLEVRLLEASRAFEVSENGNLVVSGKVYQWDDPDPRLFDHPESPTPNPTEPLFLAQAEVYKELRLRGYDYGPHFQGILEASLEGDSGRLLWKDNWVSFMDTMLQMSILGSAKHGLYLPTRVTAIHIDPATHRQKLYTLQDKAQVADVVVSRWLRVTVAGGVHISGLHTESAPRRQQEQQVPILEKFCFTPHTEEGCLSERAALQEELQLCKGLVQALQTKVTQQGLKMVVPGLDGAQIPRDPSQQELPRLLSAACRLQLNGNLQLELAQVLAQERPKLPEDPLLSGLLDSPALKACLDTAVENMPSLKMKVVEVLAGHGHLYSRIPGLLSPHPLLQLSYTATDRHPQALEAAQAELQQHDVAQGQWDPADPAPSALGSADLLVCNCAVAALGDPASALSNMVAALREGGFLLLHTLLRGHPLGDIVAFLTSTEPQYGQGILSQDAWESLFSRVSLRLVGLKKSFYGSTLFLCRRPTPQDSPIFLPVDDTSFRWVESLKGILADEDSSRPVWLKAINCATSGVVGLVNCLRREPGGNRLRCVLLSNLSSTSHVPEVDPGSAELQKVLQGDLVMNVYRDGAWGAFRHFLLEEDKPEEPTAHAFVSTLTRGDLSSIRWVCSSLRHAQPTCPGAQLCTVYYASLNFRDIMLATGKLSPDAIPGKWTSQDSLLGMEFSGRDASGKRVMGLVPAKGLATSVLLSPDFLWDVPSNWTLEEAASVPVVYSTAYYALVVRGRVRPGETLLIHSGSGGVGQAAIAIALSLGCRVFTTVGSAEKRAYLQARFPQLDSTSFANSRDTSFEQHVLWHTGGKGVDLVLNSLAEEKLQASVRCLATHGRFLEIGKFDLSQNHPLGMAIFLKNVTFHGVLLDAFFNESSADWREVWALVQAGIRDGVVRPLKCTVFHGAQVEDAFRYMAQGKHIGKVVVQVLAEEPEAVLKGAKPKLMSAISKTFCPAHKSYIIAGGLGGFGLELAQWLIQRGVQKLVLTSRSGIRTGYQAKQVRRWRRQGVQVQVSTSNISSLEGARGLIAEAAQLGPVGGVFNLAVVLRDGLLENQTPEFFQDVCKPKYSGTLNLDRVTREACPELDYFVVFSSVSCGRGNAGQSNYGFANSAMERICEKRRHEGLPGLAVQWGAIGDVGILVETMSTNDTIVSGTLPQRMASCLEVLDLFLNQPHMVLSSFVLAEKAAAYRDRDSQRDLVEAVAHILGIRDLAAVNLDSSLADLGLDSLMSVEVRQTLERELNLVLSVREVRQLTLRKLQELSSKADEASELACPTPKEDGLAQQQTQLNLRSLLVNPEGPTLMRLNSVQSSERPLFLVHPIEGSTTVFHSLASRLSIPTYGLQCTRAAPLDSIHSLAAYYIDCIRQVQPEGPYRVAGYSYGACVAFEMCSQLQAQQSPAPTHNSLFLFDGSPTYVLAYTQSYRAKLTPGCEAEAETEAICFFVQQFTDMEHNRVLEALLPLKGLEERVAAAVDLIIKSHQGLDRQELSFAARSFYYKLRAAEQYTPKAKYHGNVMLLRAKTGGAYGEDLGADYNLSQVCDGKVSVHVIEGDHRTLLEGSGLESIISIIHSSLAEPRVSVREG
Sequence of Beta-galactosidase (Q8VNN2 whole entry): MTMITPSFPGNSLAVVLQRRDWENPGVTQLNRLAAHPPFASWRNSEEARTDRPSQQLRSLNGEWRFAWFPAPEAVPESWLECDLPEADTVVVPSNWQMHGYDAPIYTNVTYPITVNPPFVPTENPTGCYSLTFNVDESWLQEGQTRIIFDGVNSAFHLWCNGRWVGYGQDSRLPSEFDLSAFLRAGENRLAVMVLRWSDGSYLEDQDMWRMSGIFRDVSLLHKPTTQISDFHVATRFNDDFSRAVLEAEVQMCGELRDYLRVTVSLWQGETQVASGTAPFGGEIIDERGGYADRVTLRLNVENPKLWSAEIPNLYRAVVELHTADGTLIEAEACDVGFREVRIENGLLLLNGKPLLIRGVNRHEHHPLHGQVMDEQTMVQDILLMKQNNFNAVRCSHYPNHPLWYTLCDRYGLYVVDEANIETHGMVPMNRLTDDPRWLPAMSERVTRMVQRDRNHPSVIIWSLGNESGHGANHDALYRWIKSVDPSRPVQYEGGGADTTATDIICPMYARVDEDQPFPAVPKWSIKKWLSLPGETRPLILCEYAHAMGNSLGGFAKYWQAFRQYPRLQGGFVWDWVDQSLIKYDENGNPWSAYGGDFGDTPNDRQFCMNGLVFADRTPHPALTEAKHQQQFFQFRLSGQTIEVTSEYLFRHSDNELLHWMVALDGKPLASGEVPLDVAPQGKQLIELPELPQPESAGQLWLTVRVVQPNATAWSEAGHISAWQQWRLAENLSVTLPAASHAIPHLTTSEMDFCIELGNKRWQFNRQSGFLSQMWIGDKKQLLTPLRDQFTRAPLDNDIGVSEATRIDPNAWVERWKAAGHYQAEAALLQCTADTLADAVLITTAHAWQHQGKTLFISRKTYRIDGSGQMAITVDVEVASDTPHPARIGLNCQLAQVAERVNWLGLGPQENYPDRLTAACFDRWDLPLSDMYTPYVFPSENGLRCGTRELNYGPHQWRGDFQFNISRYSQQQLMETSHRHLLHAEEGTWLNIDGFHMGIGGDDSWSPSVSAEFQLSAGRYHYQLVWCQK

Q: For CCc1ccc(NC(=O)c2cc(-c3cccs3)on2)cc1, which AC50 (HeLa) is on record?
A: 160 µM (active)

Q: Which results are given for CN(c1ccccc1)S(=O)(=O)c1ccc(NC(=O)c2nc(S(C)(=O)=O)ncc2Cl)cc1?
A: AC50 [1]: 2.77 µM (active); IC50 (Fatty acid synthase [2]): 5.01 µM (active); AC50 [3]: 10.5 µM (active); IC50 [4]: 3.14 µM (active); AC50 (INS1): 5.65 µM (active); IC50 (CHO): 2.03 µM (active); IC50 (Fatty acid synthase [5]): 5.88 µM (active); AC50 [6]: 0.502 µM (active); EC50 (Beta-galactosidase): > 40 µM (inactive)

Q: What does the source list for c1ccc(C2=NN(c3ccccc3)CC2)cc1?
A: EC50 [7]: 0.11 µM (active); EC50 [8]: 0.187 µM (active); AC50 (HeLa): 85.4 µM (active); EC50 [9]: > 112 µM (not active); EC50 (H4): > 120 µM (not active); EC50 [10]: > 112 µM (not active)

Q: With CCCn1ncc2c(Nc3ccc(C)c(C)c3)ncnc21 as the compound, how does the AC50 (HeLa) read?
A: 39.8 µM (active)

Q: For Cc1ccc(OCC(=O)Nc2ccc(NC(=O)c3cccs3)cc2)c(C)c1, which EC50 [11] is on record?
A: > 92.5 µM (inactive)

Q: What about the EC50 (Mu-type opioid receptor) of the same compound?
A: > 92.5 µM (inactive)

Q: What about the EC50 [12] of the same compound?
A: > 92.5 µM (inactive)

Q: What does the source list for CCOC(=O)C1Cc2c([nH]c3ccccc23)CN1.Cl (stereo not given)?
A: AC50 (Cytochrome P450 3A4): inconclusive; AC50 (Cytochrome P450 2C9): 17.8 µM (inconclusive)

Q: With Cc1ccc(C2(O)C[N+](c3ccccc3)=C3SCCN32)cc1 (stereo not given) as the compound, how does the EC50 [13] read?
A: 0.596 µM (active)

Q: And the EC50 [11]?
A: > 92.5 µM (inactive)

Q: What about the EC50 (Mu-type opioid receptor) of the same compound?
A: 48.2 µM (inactive)

Q: And the EC50 [12]?
A: > 92.5 µM (inactive)

Q: What about the EC50 [14] of the same compound?
A: 0.237 µM (active)

Q: Which EC50 [11] does the source give for COc1ccc(C(CNC(=O)c2cncc(Br)c2)N(C)C)cc1 (stereo not given) here?
A: > 92.5 µM (inactive)

Q: What about the EC50 (Mu-type opioid receptor) of the same compound?
A: 18.5 µM (inactive)

Q: What about the EC50 [12] of the same compound?
A: 26.9 µM (inactive)
